Test results taken from patent US7608726B2, “Substituted indolepyridinium as anti-infective compounds” (Tibotec Pharmaceuticals Ltd., priority 2002, dated 2009).

How the values were obtained:
Mycobacterium b. = assay: Specificity versus non-viral pathogens: Mycobacterium b.; assay type: cell-based
[1] = Microsomal metabolization, human liver microsomes; assay type: in vitro ADME
Procedure: Aliquots of human liver microsomal fractions (prepared by centrifugation at 12000 g^−1) were transferred into 10 ml glass tubes that are immersed in ice. Subsequently, test compound was added to yield a final concentration of 10 μM test compound. After adding 500 μl of a co-factor solution (cofactor solution: 1 mg/ml glucose-6-phosphate, 1 mg/ml MgCl2.6H2O, 0.5 units/ml glucose-6-phosphate dehydrogenase in 0.5 M phohsphate buffer. pH 7.4), homogenisation buffer (homogenisation buffer: 1,15% KCl in 0.05 M phosphate buffer, pH 7.4) was added to give a final volume of 1 ml. The incubations, 30 or 120 minutes at 37° C., were initiated by adding 10 μl of a solution of nicontinamide adenine dinucleotide phosphate (1.25 mg/ml) in homogenisation buffer. After a preincubation during 5 minutes at 37° C., the tubes were continuously shaken at 100 oscillations/minute in a water bath. The reactions were terminated by addition of an equal volume of DMSO. Blank incubations containing boiled microsomal fractions were incubated under the same conditions as the drug incubations. The degree of metabolism was determined by direct measurement of the residual parent compound in the reaction mixture using LC-MS. In parallel, the residual anti-HIV activity in the reaction mixture was detected using a colorimetric anti-HIV assay as described in Pauwels et al. J. Virol. Methods 1988 (20) 309-321. The residual activity is defined as the percent difference in EC50 between the drug incubations and the blank incubations.
The amount of compound was determined using LC-MS at the time points indicated between brackets. The results are indicated as a % vis-à-vis the amount determined at the start of the experiment (time=0; normalized to 100%).

[2] = target: T1, HIV reverse transcriptase (Human immunodeficiency virus type 1 group M subtype B, UniProt P04585); assay: In vitro inhibition of HIV reverse transcriptase (kit TRK 1022); assay type: biochemical; conditions: enzyme assay, 4 hours at 37° C.
T1 construct: 5 μl HIV RT enzyme solution; purchased Amersham Life Sciences TRK 1022
Procedure: The assay was run using kit TRK 1022 (Amersham Life Sciences) according to the manufacturer's instructions with slight modifications. Compounds were diluted in steps of ¼ in 100% DMSO and subsequently transferred to Medium A (1/50 dilution; medium A: RPMI 1640+10% FetalClone II+Gentamycin 20 mg/L). 25 μl of compound (in 2% DMSO in Medium A) or 25 μl of 2% DMSO in medium A was added to wells. To each well was added 25.5 μl master mix (master mix: 5 μl primer/template beads, 10 μl assay buffer, 0.5 μl tracer (3H-TTP), 5 μl HIV RT enzyme solution at a final enzyme activity of 15 mU per 50 μl reaction, 5 μl medium A). The plates were sealed, marked as radioactive and incubated during 4 hours at 37° C. Subsequently, 100 μl stop solution was added to each well (except R1). The radioactivity was counted in a TopCount.

[3] = tested on: HIV mutant I (K101E, K103N); assay: Antiviral cellular assay, mutant HIV strain I; assay type: cell-based; conditions: EC50 mutant/EC50 wild type, rounded to nearest integer
Procedure: (§1) HIV- or mock-infected MT4 cells were incubated for five days in the presence of various concentrations of the inhibitor. At the end of the incubation period, the replicating virus in the control cultures has killed all HIV-infected cells in the absence of any inhibitor. Cell viability was determined by measuring the concentration of MTT, a yellow, water soluble tetrazolium dye that is converted to a purple, water insoluble formazan in the mitochondria of living cells only. Upon solubilization of the resulting formazan crystals with isopropanol, the absorbance of the solution was monitored at 540 nm. The values correlate directly to the number of living cells remaining in the culture at the completion of the five day incubation. The inhibitory activity of the compound was monitored on the virus-infected cells and was expressed as EC50 and EC90. These values represent the amount of the compound required to protect 50% and 90%, respectively, of the cells from the cytopathogenic effect of the virus. […] Wherever results are reported as e.g. pEC50 or pCC50 values, the result is expressed as the negative logarithm of the result expressed as EC50 or CC50 respectively. […]
(§2) Row WT: pEC50 against wild type HIV-LAI strain. The toxicity (Tox) is expressed as the pCC50 value as determined with mock transfected cells. ND means not determined.

HIV-2 = assay: Antiviral cellular assay, HIV-2; assay type: cell-based; conditions: Human immunodeficiency virus 2; read-out: pEC50 towards HIV-2 (converted)
Procedure: HIV- or mock-infected MT4 cells were incubated for five days in the presence of various concentrations of the inhibitor. At the end of the incubation period, the replicating virus in the control cultures has killed all HIV-infected cells in the absence of any inhibitor. Cell viability was determined by measuring the concentration of MTT, a yellow, water soluble tetrazolium dye that is converted to a purple, water insoluble formazan in the mitochondria of living cells only. Upon solubilization of the resulting formazan crystals with isopropanol, the absorbance of the solution was monitored at 540 nm. The values correlate directly to the number of living cells remaining in the culture at the completion of the five day incubation. The inhibitory activity of the compound was monitored on the virus-infected cells and was expressed as EC50 and EC90. These values represent the amount of the compound required to protect 50% and 90%, respectively, of the cells from the cytopathogenic effect of the virus. […] Wherever results are reported as e.g. pEC50 or pCC50 values, the result is expressed as the negative logarithm of the result expressed as EC50 or CC50 respectively.
as §2

[4] = Microsomal metabolization, dog liver microsomes; assay type: in vitro ADME; conditions: 10 μM, LC-MS
[5] = tested on: HIV mutant D (L100I; K103N); assay: Antiviral cellular assay, mutant HIV strain D; assay type: cell-based; conditions: EC50 mutant/EC50 wild type, rounded to nearest integer
Procedure: as §1, §2

HIV mutant F (Y188L) = assay: Antiviral cellular assay, mutant HIV strain F; assay type: cell-based; conditions: EC50 mutant/EC50 wild type, rounded to nearest integer
Procedure: as §1, §2

[6] = tested on: HIV mutant G (V106A, F227L); assay: Antiviral cellular assay, mutant HIV strain G; assay type: cell-based; conditions: EC50 mutant/EC50 wild type, rounded to nearest integer
Procedure: as §1, §2

[7] = tested on: HIV mutant J (131L, L100I, K103N, E138G, Y181C, L214F); assay: Antiviral cellular assay, mutant HIV strain J; assay type: cell-based; conditions: EC50 mutant/EC50 wild type, rounded to nearest integer
Procedure: as §1, §2

[8] = tested on: HIV mutant K (multiple RT mutations, Table 1); assay: Antiviral cellular assay, mutant HIV strain K; assay type: cell-based; conditions: EC50 mutant/EC50 wild type, rounded to nearest integer
Procedure: as §1, §2

HIV mutant A (Y181C) = assay: Antiviral cellular assay, mutant HIV strain A; assay type: cell-based; conditions: EC50 mutant/EC50 wild type, rounded to nearest integer
Procedure: as §1, §2

[9] = tested on: SIV (simian immunodeficiency virus); assay: Antiviral cellular assay, SIV; assay type: cell-based; conditions: read-out: pEC50 towards SIV (converted)
[10] = tested on: HIV mutant H (K103N, Y181C); assay: Antiviral cellular assay, mutant HIV strain H; assay type: cell-based; conditions: EC50 mutant/EC50 wild type, rounded to nearest integer
Procedure: as §1, §2

[11] = tested on: HIV-1 strain LAI in MT4 cells; assay: Time of addition experiment (p24 ELISA); assay type: cell-based; conditions: 50 μM, MT4 cells infected with HIV-1 LAI
Procedure: A time of addition experiment was performed to determine the mechanism of action of the compounds of the present invention. In the time of addition experiment, compounds are added to cells that were infected with HIV, at time zero (Zero hours). The compounds are subsequently added at different points in time. The time point until which a compound can be added to prevent virus replication, provides an indication of the mechanism of action of the compound.
In the present experiment, MT4 cells were infected with HIV-1 strain LAI at time zero. In different experiments, compounds were subsequently added at the points in time indicated in the X-axis of FIG. 1 (in hours). The compounds were added at the following end concentrations during incubation: DS5000, 1 μM; efavirenz (EFV), 1 μM; saquinavir (SQV), 1 μM; Reference 1, 10 μM (Reference 1 is an integrase inhibitor selected from WO 99/62520 and is present in CAS database: 251963-93-6); Compound 2, 50 μM; Control: normalized virus production. The virus production was determined using p24 monitoring using a kit according to the manufacturers instructions (p24 ELISA kit, catalog reference NEK-050, Perkin Elmer).

HIV mutant E (F227C) = assay: Antiviral cellular assay, mutant HIV strain E; assay type: cell-based; conditions: EC50 mutant/EC50 wild type, rounded to nearest integer
Procedure: as §1, §2

[12] = tested on: HIV mutant C (L100I; K103N); assay: Antiviral cellular assay, mutant HIV strain C; assay type: cell-based; conditions: EC50 mutant/EC50 wild type, rounded to nearest integer
Procedure: as §1, §2

HIV mutant B (K103N) = assay: Antiviral cellular assay, mutant HIV strain B; assay type: cell-based; conditions: EC50 mutant/EC50 wild type, rounded to nearest integer
Procedure: as §1, §2

## Cn1c2ccccc2c2c1cc(C#N)c(=O)n2-c1ccc([N+](=O)[O-])cc1 [Compound 2, 5-methyl-1-(4-nitro-phenyl)-2-oxo-2,5-dihydro-1H-pyrido[3,2-b]indole-3-carbonitrile]
Mycobacterium b.
  EC50: > 32000 nM
[1]; 10 μM, 0 min, LC-MS, normalized to 100% at time 0
  HLM (0 min) amount of compound: 100%
[1]; 10 μM, 30 min, LC-MS, % of amount at time 0
  HLM (30 min) amount of compound: 98%
[1]; 10 μM, 120 min, LC-MS, % of amount at time 0
  HLM (120 min) amount of compound: 128%
[1]; liver microsomal fractions
  hepatic first pass metabolization (microsomal): little or no hepatic first pass metabolization
[2]
  in vitro inhibition of HIV reverse transcriptase: inhibits HIV reverse transcriptase in vitro
[3]
  fold resistance mutant I (between brackets): 3
HIV-2
  EC50: 251 nM
[4]; 0 min, normalized to 100% at time 0
  DLM (0 min) amount of compound: 100%
[4]; 30 min, % of amount at time 0
  DLM (30 min) amount of compound: 91%
[4]; 120 min, % of amount at time 0
  DLM (120 min) amount of compound: 108%
[5]
  fold resistance mutant D (between brackets): 2
HIV mutant F (Y188L)
  fold resistance mutant F (between brackets): 2
[6]
  fold resistance mutant G (between brackets): 3
[7]
  fold resistance mutant J (between brackets): 5
[8]
  fold resistance mutant K (between brackets): 4
HIV mutant A (Y181C)
  fold resistance mutant A (between brackets): 4
[9]
  EC50: 316 nM
[10]
  fold resistance mutant H (between brackets): 5
[11]
  time of addition: effect on virus production / mechanism: delayed virus production using a mechanism related to reverse transcriptase
HIV mutant E (F227C)
  fold resistance mutant E (between brackets): 3
[12]
  fold resistance mutant C (between brackets): 3
HIV mutant B (K103N)
  fold resistance mutant B (between brackets): 1
